“Also recorded” adds a separate entry of the source. Read-outs that look alike come from different tables or passages of the source.
Experiments:
[1] = test system: Mycobacterium marinum (Mm) in infection of Dictyostelium discoideum (Mm-inf); assay: Anti-infective assay, growth of Mm during infection of Dd (Mm-inf, luminescence); format: cell-based; settings: for IC50: 72 h; for activity at 20 µM: vehicle = 1, baseline = 0, hit cut-off <0.5; for pro-infective effect on Mm-inf (in words): between 0.4 and 3.3 μM
[2] = test system: Mycobacterium marinum in broth (Mm-broth); assay: Antibacterial assay, growth of Mm in broth (Mm-broth, luminescence); format: cell-based; settings: for IC50 / MIC: Mycobacterium marinum; for IC50: read-out: IC50 Mm-broth; for activity on Mm-broth (in words): at respective maximal tested concentration; for normalized residual growth of Mm-broth: 20 μM, vehicle = 1, baseline = 0; for activity on Mm in broth (in words): screen at 20 μM or dose-response curve
Mm [3] = settings: MIC90 from clinical isolates, cited from earlier work
[4] = test system: Dictyostelium discoideum (Dd-inf); assay: microbe, parasite or virus in culture; format: cell-based; settings: for normalized residual growth of Dd-inf: 20 μM, vehicle = 1, baseline = 0; for IC50: Dictyostelium discoideum, 72 h, read-out: IC50 Dd-inf (Dd growth)
intracellular Mm = assay: Anti-infective assay with high-content microscopy, area of intracellular Mm; settings: 20, 10, 2.5 μM, up to 48 h
Protocol: (§1) To monitor both the host and pathogen during the course of infection in a quantitative manner, Dd Ax2(ka) cells expressing mCherry knocked-in at the act5 locus ([Paschke et al., 2019]) were infected as described above with Mm WT stably expressing GFP (Msp:12-GFP). As described above, the day before the experiment, 10^7 amoebae were plated in a 10 cm Petri dish. On the day of the experiment, infection was performed, as described above, in HL5-C at MOI 25 by spinoculation. This was followed by eight washes in HL5-C to clear a maximum of non-internalized bacteria. The infected amoebae were detached mechanically and resuspended in HL5-C with 0.75 U/mL penicillin and 0.75 μg/mL of streptomycin (Gibco). Compounds were diluted in HL5-C to a 10x stock of the final assay concentration and pre-plated in 20 μL into the respective wells of a 96-well μ-plate (iBIDI 96-well μ-plate, 89,626). Subsequently, 7,500 cells per well were added in a volume of 180 μL. Every condition has been plated in at least three technical replicates and at least three biological replicates. The 96-well plate was sealed with a gas permeable seal (4titude, 4ti-0516/96) and centrifuged briefly.
(§2) Microscopy images were acquired at 25°C with a 40X plan Apo objective at selected time points over 48 h on the ImageXpress Micro C® automated microscope (Molecular Devices) in wide field mode. Focus was obtained automatically by autofocusing on the well bottom and plate bottom, at every well and every time point. In a grid of 4 × 5, 20 images per well, corresponding to a range of 500–6,000 cells, have been taken using the Texas-Red channel for Dd expressing mCherry and FITC channel for Mm expressing GFP in each experiment. Image analysis was performed using MetaXpress Custom Module editor software. Objects were effectively segmented by size and intensity. More precisely, amoebae were segmented using a “find blob module” using the Texas-Red channel. To segment the bacteria, the FITC image was first subjected to a light deconvolution with a top hat filter and then segmented using a “find blob module.” Intracellular bacteria and infected amoebae were determined by associating the mask of the amoebae and the bacteria. Several parameters such as intracellular and extracellular bacterial area sum, amoebae area sum, averaged and integrated fluorescence intensity and feature counts of bacteria and amoeba were extracted. The growth curves for the area sum of uninfected amoebae, infected amoebae and intracellular bacteria of independent biological replicates were averaged and plotted using GraphPad Prism (Version 8.0.1).
(§3) Both uninfected Dd and Dd infected with Mm were treated with 20, 10 or 2.5 μM of 17 or 19 and the infection was monitored by collecting microscopy images at five time points for up to 48 h.

Dd Ax2(ka) cells = assay: Anti-infective assay with high-content microscopy, area of uninfected and infected Dd; settings: 20, 10, 2.5 μM, up to 48 h
Protocol: as §1, §2, §3

Mm [5] = assay: Checkerboard assay for synergy with antibiotics
Description: We tested this compound for synergy with rifampicin and isoniazid in a checkerboard assay and additionally tested for synergy between rifampicin and isoniazid.

[6] = 72 h, 7H9 broth, 32°C, read-out: MIC Mm-broth
[7] = ref Woods and Clinical and Laboratory Standards Institute, 2011
[8] = read-out: IC50 Mm-inf, 72 h, AUC of luminescence normalized to vehicle, 4PL regression
[9] = at respective maximal tested concentration
[10] = converted from μM, read-out: MIC in infection
[11] = lowest concentration with normalized residual growth plus one SD ≤0, 72 h, read-out: MIC Mm-inf
[12] = 20 μM, read-out: normalized residual growth of Mm-inf
[13] = AUC of luminescence normalized to vehicle, 4PL regression, read-out: IC50 Mm-inf
[14] = read-out: normalized residual growth of Mm-inf, 20 μM

## COc1cc(/C=C\c2ccc3c(c2)[C@H](c2cc(OC)cc(OC)c2)[C@@H](c2ccc(O)cc2)O3)cc(OC)c1 [compound 58]
[1]; at 20 μM
  activity on Mm-inf (in words): inactive

## COc1cc(/C=C/c2ccc3oc(-c4ccc(O)cc4)c(-c4cc(OC)cc(OC)c4)c3c2)cc(OC)c1 [compound 69]
[1]; dose-response curve
  activity on Mm-inf (in words): remained inactive

## CC[C@@H](CO)NCCN[C@@H](CC)CO [ethambutol, reference compound]
[2]; 72 h
  IC50: 1 µM
[2]; [6]
  MIC: 3.3 µM
[2]
  activity on Mm-broth (in words): sterilizing activity
Mm [3]; [7]
  breakpoint of antibacterial susceptibility for Mm: 4 µg/mL
[1]; [8]
  IC50: 7 µM
[1]; [9]
  activity on Mm-inf (in words): sterilizing activity
[1]; [10]
  MIC: 6.1 µg/mL
[1]; [11]
  MIC: 30 µM

## COc1cc(O)cc(/C=C/c2ccc(O)cc2)c1 [compound 3, pinostilbene]
[1]; dose-response curve
  activity on Mm-inf (in words): active on Mm-inf, at high concentrations (>20 μM)

## COc1nc2ccc(Br)cc2cc1[C@@H](c1ccccc1)[C@@](O)(CCN(C)C)c1cccc2ccccc12 [bedaquiline]
[2]; 72 h
  IC50: 1.6 µM
[2]; 72 h, read-out: MIC Mm-broth
  MIC: 3.3 µM
[2]
  activity on Mm-broth (in words): sterilizing activity
[1]; [8]
  IC50: 4 µM
[1]; [9]
  activity on Mm-inf (in words): sterilizing activity

## Oc1ccc(C2Oc3ccc(C=Cc4cc(O)cc(O)c4)cc3C2c2cc(O)cc(O)c2)cc1 (stereo not drawn) [compound 11, trans-δ-viniferin]
[2]
  normalized residual growth of Mm-broth: 1
[1]; [12]
  activity at 20 µM: 110%

## CCc1cc(C(N)=S)ccn1 [ethionamide]
[2]; 72 h
  IC50: 0.8 µM
[2]; 72 h, read-out: MIC Mm-broth
  MIC: 3.3 µM
[2]
  activity on Mm-broth (in words): sterilizing activity
Mm [3]; ref Lorian, 2005
  breakpoint of antibacterial susceptibility for Mm: 5 µg/mL
[1]; [8]
  IC50: 4 µM
[1]; [9]
  activity on Mm-inf (in words): sterilizing activity

## COc1cc(OC)cc(C2c3cc(C=Cc4cc(O)cc(O)c4)ccc3OC2c2ccc(O)cc2)c1 (stereo not shown) [compound 17]
[4]
  normalized residual growth of Dd-inf: 0.91
[2]
  activity on Mm in broth (in words): no activity on Mm in broth; also recorded: without antibiotic activity; also recorded: did not show any growth inhibition
Intracellular Mm
  growth of intracellular Mm (segmented area, in words): this effect was weaker
[1]; [13]
  IC50: 18.1 µM
[1]; at 20 μM
  activity on Mm-inf (in words): passed again the 0.5 cut-off
[1]; dose-response curve
  activity on Mm-inf (in words): dose-dependent activity; also recorded: validated anti-infectives without antibiotic properties
[1]; read-out: IC50 Mm-inf, AUC of luminescence normalized to vehicle, 4PL regression
  IC50: 18.9 µM
[1]; [14]
  activity at 20 µM: 34%
Dd Ax2(ka) cells
  growth of infected Dd (segmented area, in words): this effect was weaker
Mm [5]
  synergy with rifampicin and isoniazid (in words): did not find striking synergy

## NC(=O)c1cnccn1 [pyrazinamide, reference compound]
[2]
  activity on Mm in broth (in words): no activity against Mm
[1]
  pro-infective effect on Mm-inf (in words): slight pro-infective effect
[1]; dose-response curve
  activity on Mm-inf (in words): lack of activity; also recorded: no activity against Mm

## Oc1ccc(/C=C/c2cc(O)cc(O)c2)cc1 [compound 1, resveratrol]
[1]; dose-response curve
  activity on Mm-inf (in words): lack of activity

## COc1cc(C=Cc2ccc3c(c2)C(c2cc(O)cc(O)c2)C(c2ccc(O)cc2)O3)cc(OC)c1 (stereo not shown) [compound 19]
[4]
  normalized residual growth of Dd-inf: –0.22
[4]; dose-response curve
  IC50: 12.1 µM
  lowest measured value of Dd-inf (normalized residual growth): −0.40
[2]
  activity on Mm in broth (in words): no activity on Mm in broth; also recorded: without antibiotic activity; also recorded: did not show any growth inhibition
Intracellular Mm
  growth of intracellular Mm (segmented area, in words): almost completely inhibited
[1]; [13]
  IC50: 9 µM
[1]; at 20 μM
  activity on Mm-inf (in words): passed again the 0.5 cut-off
[1]; dose-response curve
  activity on Mm-inf (in words): dose-dependent activity; also recorded: validated anti-infectives without antibiotic properties
[1]; [14]
  activity at 20 µM: -32%
Dd Ax2(ka) cells
  growth of infected Dd (segmented area, in words): almost completely inhibited
  growth of uninfected Dd (segmented area, in words): significantly reduced

## COc1cc(C=Cc2ccc3c(c2)C(c2cc(OC)cc(OC)c2)C(c2ccc(O)cc2)O3)cc(OC)c1 (stereo not shown) [compound 21]
[2]
  normalized residual growth of Mm-broth: 1
[1]; [12]
  activity at 20 µM: 140%

## COc1cc(/C=C/c2ccc(O)cc2)cc(OC)c1 [compound 2, pterostilbene]
[4]
  normalized residual growth of Dd-inf: –0.16
[4]; dose-response curve
  IC50: 11.1 µM
[2]
  activity on Mm in broth (in words): inactive on Mm in broth
[1]; [12]
  activity at 20 µM: 28%
[1]; [13]
  IC50: 19.8 µM
[1]; dose-response curve
  activity on Mm-inf (in words): validated anti-infectives without antibiotic properties

## Oc1ccc([C@H]2Oc3ccc(/C=C\c4cc(O)cc(O)c4)cc3[C@@H]2c2cc(O)cc(O)c2)cc1 [compound 55]
[1]; at 20 μM
  activity on Mm-inf (in words): inactive

## CO[C@H]1/C=C/O[C@@]2(C)Oc3c(C)c(O)c4c(O)c(c(/C=N/N5CCN(C)CC5)c(O)c4c3C2=O)NC(=O)/C(C)=C\C=C\[C@H](C)[C@H](O)[C@@H](C)[C@@H](O)[C@@H](C)[C@H](OC(C)=O)[C@@H]1C [rifampicin, reference compound]
[4]; dose-response curve
  activity on Dd growth, Dd-inf (in words): affected amoebae growth slightly at the highest tested concentrations
[2]; 72 h
  IC50: 0.1 µM
[2]; [6]
  MIC: 1.1 µM
[2]
  activity on Mm-broth (in words): sterilizing activity
[1]; [8]
  IC50: 5 µM
[1]; [9]
  activity on Mm-inf (in words): sterilizing activity
[1]; [11]
  MIC: 10 µM

## COc1cc(/C=C\c2ccc3c(c2)[C@H](c2cc(O)cc(O)c2)[C@@H](c2ccc(O)cc2)O3)cc(OC)c1 [compound 57]
[1]; [8]
  IC50: 9.8 µM

## COc1cc(O)cc(/C=C/c2ccc3c(c2)[C@H](c2cc(O)cc(OC)c2)[C@@H](c2ccc(O)cc2)O3)c1 [compound 64]
[4]; dose-response curve
  lowest measured value of Dd-inf (normalized residual growth): 0.62
Intracellular Mm
  growth of intracellular Mm (segmented area, in words): infection was well controlled
[1]; [13]
  IC50: 8 µM
Dd Ax2(ka) cells
  growth of uninfected Dd (segmented area, in words): only a slight growth inhibition at 20 μM

## COc1ccc([C@H]2Oc3ccc(/C=C/c4cc(O)cc(O)c4)cc3[C@@H]2c2cc(O)cc(OC)c2)cc1 [compound 62]
[4]; dose-response curve
  lowest measured value of Dd-inf (normalized residual growth): 0.42
[1]; [13]
  IC50: 13.4 µM

## COc1ccc([C@H]2Oc3ccc(/C=C/c4cc(O)cc(OC)c4)cc3[C@@H]2c2cc(O)cc(O)c2)cc1 [compound 63]
[4]; dose-response curve
  lowest measured value of Dd-inf (normalized residual growth): 0.8
Intracellular Mm
  growth of intracellular Mm (segmented area, in words): infection was well controlled
[1]; [13]
  IC50: 8.6 µM
Dd Ax2(ka) cells
  growth of uninfected Dd (segmented area, in words): only a slight growth inhibition at 20 μM

## CO[C@H]1/C=C/O[C@@]2(C)Oc3c(C)c(O)c4c(c3C2=O)C2=NC3(CCN(CC(C)C)CC3)NC2=C(NC(=O)/C(C)=C\C=C\[C@H](C)[C@H](O)[C@@H](C)[C@@H](O)[C@@H](C)[C@H](OC(C)=O)[C@@H]1C)C4=O [rifabutin]
[4]; dose-response curve
  activity on Dd growth, Dd-inf (in words): affected amoebae growth slightly at the highest tested concentrations
[2]; 72 h
  IC50: 0.03 µM
[2]; 72 h, read-out: MIC Mm-broth
  MIC: 0.01 µM
[2]
  activity on Mm-broth (in words): sterilizing activity
Mm [3]; [7]
  breakpoint of antibacterial susceptibility for Mm: 2 µg/mL
[1]; [8]
  IC50: 0.2 µM
[1]; [9]
  activity on Mm-inf (in words): sterilizing activity

## Oc1ccc(-c2oc3ccc(/C=C/c4cc(O)cc(O)c4)cc3c2-c2cc(O)cc(O)c2)cc1 [compound 66]
[4]
  IC50: 26.2 µM
[1]; [8]
  IC50: 29.7 µM
[1]; [14]
  activity at 20 µM: 55%

## COc1cc(/C=C/c2ccc3oc(-c4ccc(O)cc4)c(-c4cc(O)cc(O)c4)c3c2)cc(OC)c1 [compound 68]
[1]; [8]
  IC50: 20.1 µM

## NNC(=O)c1ccncc1 [isoniazid, reference compound]
[2]; 72 h
  IC50: 10 µM
[2]; [6]
  MIC: 30 µM
[2]; converted from μM, read-out: MIC in broth
  MIC: 4.1 µg/mL
[2]
  activity on Mm-broth (in words): sterilizing activity
[1]; [8]
  IC50: 11 µM
[1]; [9]
  activity on Mm-inf (in words): sterilizing activity
[1]
  pro-infective effect on Mm-inf (in words): slight pro-infective effect
[1]; [10]
  MIC: 4.1 µg/mL
[1]; [11]
  MIC: 30 µM

## COc1cc(/C=C/c2cc(O)cc(O)c2)ccc1O [compound 4, isorhapontigenin]
[1]; dose-response curve
  activity on Mm-inf (in words): lack of activity

## COc1cc(OC)cc(-c2c(-c3ccc(O)cc3)oc3ccc(/C=C/c4cc(O)cc(O)c4)cc23)c1 [compound 67]
[1]; [8]
  IC50: 19.6 µM

## COc1cc([C@H]2Oc3c(OC)cc(/C=C/c4cc(O)cc(O)c4)cc3[C@@H]2c2cc(O)cc(O)c2)ccc1O [compound 65]
[1]; at 20 μM
  activity on Mm-inf (in words): pro-infective activity

## COc1cc(OC)cc([C@H]2c3cc(/C=C\c4cc(O)cc(O)c4)ccc3O[C@@H]2c2ccc(O)cc2)c1 [compound 56]
[1]; [8]
  IC50: 19.7 µM
